Laboratory results published in patent publication US8846669B2, “Oxazolidinone derivative and medical composition containing same” (Legochem Biosciences, Inc., priority 2011, dated 2014).
Values after ≈ are worked out from the molar mass of the structure shown. Like-named read-outs stand apart in the source and are kept apart here.

What was measured:
Assay in all cases: In vitro antibacterial activity, broth microdilution MIC90
Format in all cases: cell-based
[1] = tested on: Enterococcus faecalis; details: Enterococcus faecalis
In short: (§1)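 Antibacterial testing used the CLSI M7-A5 dilution method for aerobic bacteria across twelve strains, including resistant staphylococcal and enterococcal isolates. Final drug levels of 0.063 μg/mL up to 128 μg/mL were tested; linezolid was included for comparison.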

[2] = tested on: Enterococcus faecium; details: Enterococcus faecium
In short: as §1

[3] = tested on: Linezolid and Vancomycin Resistant Enterococcus faecalis; details: for MIC90: Enterococcus faecalis
In short: as §1

[4] = tested on: Linezolid and Vancomycin Resistant Enterococcus faecium (strain 10); details: Enterococcus faecium
In short: as §1

[5] = tested on: Linezolid and Vancomycin Resistant Enterococcus faecium (strain 11); details: Enterococcus faecium
In short: as §1

[6] = tested on: Methicillin Resistant Staphylococcus aureus; details: Staphylococcus aureus
In short: as §1

[7] = tested on: Methicillin Resistant Staphylococcus epidermidis; details: Staphylococcus epidermidis
In short: as §1

[8] = tested on: Moraxella catarrhalis; details: Moraxella catarrhalis
In short: as §1

[9] = tested on: Staphylococcus aureus; details: Staphylococcus aureus
In short: as §1

[10] = tested on: Staphylococcus epidermidis; details: Staphylococcus epidermidis
In short: as §1

[11] = tested on: Vancomycin Resistant Enterococcus faecalis; details: Enterococcus faecalis
In short: as §1

[12] = tested on: Vancomycin Resistant Enterococcus faecium; details: Enterococcus faecium
In short: as §1

[13] = strain 5, E. faecalis, read-out: MIC90
[14] = strain 8, E. faecium, read-out: MIC90
[15] = strain 7, E. faecalis VanA LR, read-out: MIC90
[16] = strain 10, E. faecium VanA LR, read-out: MIC90
[17] = strain 11, E. faecium VanA LR, read-out: MIC90
[18] = strain 2, S. aureus MR, read-out: MIC90
[19] = strain 4, S. epidermidis MR, read-out: MIC90
[20] = strain 12, M. catarrhalis, read-out: MIC90
[21] = strain 1, S. aureus, read-out: MIC90
[22] = strain 3, S. epidermidis, read-out: MIC90
[23] = strain 6, E. faecalis VanA, read-out: MIC90
[24] = strain 9, E. faecium VanA, read-out: MIC90

MIC90 [1, 13] [µg/mL] | MIC90 [2, 14] [µg/mL] | MIC90 [3, 15] [µg/mL] | MIC90 [4, 16] [µg/mL] | MIC90 [5, 17] [µg/mL] | MIC90 [6, 18] [µg/mL] | MIC90 [7, 19] [µg/mL] | MIC90 [8, 20] [µg/mL] | Compound | MIC90 [1] [µg/mL] | MIC90 [2] [µg/mL] | MIC90 [3] [µg/mL] | MIC90 [4] [µg/mL] | MIC90 [5] [µg/mL] | MIC90 [6] [µg/mL] | MIC90 [7] [µg/mL] | MIC90 [8] [µg/mL] | MIC90 [9] [µg/mL] | MIC90 [10] [µg/mL] | MIC90 [11] [µg/mL] | MIC90 [12] [µg/mL] | other results
1 (≈ 2.69 µM) | 0.5 (≈ 1.34 µM) | 8 (≈ 21.5 µM) | 4 (≈ 10.7 µM) | 8 (≈ 21.5 µM) | 1 (≈ 2.69 µM) | 1 (≈ 2.69 µM) | 8 (≈ 21.5 µM) | O=C1O[C@@H](CO)CN1c1ccc(-c2ccc(N3C=NOCC3)nc2)c(F)c1 [Compound 58] | – | – | – | – | – | – | – | – | – | – | – | – | MIC90 [9, 21]: 0.5 µg/mL (≈ 1.34 µM); MIC90 [10, 22]: 0.5 µg/mL (≈ 1.34 µM); MIC90 [11, 23]: 0.5 µg/mL (≈ 1.34 µM); MIC90 [12, 24]: 1 µg/mL (≈ 2.69 µM)
– | – | – | – | – | – | – | – | CNC(=O)N1CCN(c2ccc(-c3ccc(N4C[C@H](CNC(C)=O)OC4=O)cc3F)cn2)C=N1 [Compound 16] | 0.25 (≈ 0.533 µM) | 0.5 (≈ 1.07 µM) | 1 (≈ 2.13 µM) | 2 (≈ 4.26 µM) | 2 (≈ 4.26 µM) | 1 (≈ 2.13 µM) | 1 (≈ 2.13 µM) | 2 (≈ 4.26 µM) | 0.25 (≈ 0.533 µM) | 0.25 (≈ 0.533 µM) | 0.5 (≈ 1.07 µM) | 0.5 (≈ 1.07 µM) | –
0.5 (≈ 1.14 µM) | 0.5 (≈ 1.14 µM) | 1 (≈ 2.27 µM) | 1 (≈ 2.27 µM) | 1 (≈ 2.27 µM) | 0.5 (≈ 1.14 µM) | 0.5 (≈ 1.14 µM) | 4 (≈ 9.08 µM) | CC(=O)NC[C@H]1CN(c2ccc(-c3ccc(N4CCN(C=O)C=N4)nc3)c(F)c2)C(=O)O1 [Compound 52] | – | – | – | – | – | – | – | – | – | – | – | – | MIC90 [9, 21]: 0.25 µg/mL (≈ 0.568 µM); MIC90 [10, 22]: 0.25 µg/mL (≈ 0.568 µM); MIC90 [11, 23]: 0.5 µg/mL (≈ 1.14 µM); MIC90 [12, 24]: 0.5 µg/mL (≈ 1.14 µM)
– | – | – | – | – | – | – | – | C=CCN1CCN(c2ccc(-c3ccc(N4C[C@H](CNC(C)=O)OC4=O)cc3F)cn2)C=N1 [Compound 7] | 0.5 (≈ 1.1 µM) | 1 (≈ 2.21 µM) | 4 (≈ 8.84 µM) | 4 (≈ 8.84 µM) | 4 (≈ 8.84 µM) | 1 (≈ 2.21 µM) | 1 (≈ 2.21 µM) | 2 (≈ 4.42 µM) | 0.5 (≈ 1.1 µM) | 0.5 (≈ 1.1 µM) | 1 (≈ 2.21 µM) | 1 (≈ 2.21 µM) | –
– | – | – | – | – | – | – | – | COC(=O)NC[C@H]1CN(c2ccc(-c3ccc(N4C=NN(C(=O)CO)CC4)nc3)c(F)c2)C(=O)O1 [Compound 25] | 0.5 (≈ 1.03 µM) | 0.25 (≈ 0.514 µM) | 4 (≈ 8.22 µM) | 4 (≈ 8.22 µM) | 2 (≈ 4.11 µM) | 0.5 (≈ 1.03 µM) | 1 (≈ 2.06 µM) | 4 (≈ 8.22 µM) | 0.063 (≈ 0.13 µM) | 0.25 (≈ 0.514 µM) | 0.5 (≈ 1.03 µM) | 0.5 (≈ 1.03 µM) | –
– | – | – | – | – | – | – | – | COC(=O)NC[C@H]1CN(c2ccc(-c3ccc(N4C=NN(C(N)=O)CC4)nc3)c(F)c2)C(=O)O1 [Compound 26] | 0.5 (≈ 1.06 µM) | 0.25 (≈ 0.53 µM) | 4 (≈ 8.48 µM) | 4 (≈ 8.48 µM) | 2 (≈ 4.24 µM) | 1 (≈ 2.12 µM) | 1 (≈ 2.12 µM) | 4 (≈ 8.48 µM) | 0.25 (≈ 0.53 µM) | 0.5 (≈ 1.06 µM) | 0.5 (≈ 1.06 µM) | 0.5 (≈ 1.06 µM) | –
– | – | – | – | – | – | – | – | CC(=O)NC[C@H]1CN(c2ccc(-c3ccc(N4CCN(C(=O)CO)C=N4)nc3)c(F)c2)C(=O)O1 [Compound 54] | 0.063 (≈ 0.134 µM) | 0.25 (≈ 0.531 µM) | 0.5 (≈ 1.06 µM) | 0.5 (≈ 1.06 µM) | 0.5 (≈ 1.06 µM) | 0.5 (≈ 1.06 µM) | 0.5 (≈ 1.06 µM) | 1 (≈ 2.13 µM) | 0.25 (≈ 0.531 µM) | 0.125 (≈ 0.266 µM) | 0.063 (≈ 0.134 µM) | 0.063 (≈ 0.134 µM) | antibacterial activity against linezolid-resistant bacteria (in words) ([3]; Enterococcus faecalis and Enterococcus faecium which are resistant to linezolid): very high antibacterial activity
0.25 (≈ 0.59 µM) | 0.125 (≈ 0.295 µM) | 1 (≈ 2.36 µM) | 1 (≈ 2.36 µM) | 2 (≈ 4.72 µM) | 0.5 (≈ 1.18 µM) | 0.5 (≈ 1.18 µM) | 1 (≈ 2.36 µM) | O=C1O[C@@H](Cn2ccnn2)CN1c1ccc(-c2ccc(C3=NOCCN3)nc2)c(F)c1 [Compound 66] | – | – | – | – | – | – | – | – | – | – | – | – | MIC90 [9, 21]: 0.125 µg/mL (≈ 0.295 µM); MIC90 [10, 22]: 0.25 µg/mL (≈ 0.59 µM); MIC90 [11, 23]: 0.25 µg/mL (≈ 0.59 µM); MIC90 [12, 24]: 0.25 µg/mL (≈ 0.59 µM)
